# Results as given in publication PMC5007552, “The hVps34‐SGK3 pathway alleviates sustained PI3K/Akt inhibition by stimulating mTORC1 and tumour growth” (The EMBO Journal, 2016).
# Values joined by “and” are separate entries in the source; they are usually repeats but may differ in a detail not shown here. Equal values may be shown once.
# Test system: ZR-75-1 cells
# Assay: NanoString human kinome mRNA quantification
# Assay type: cell-based
# Source text: Human mRNAs were hybridised to NanoString human kinome and control code sets, then subjected to quantification using NanoString software. […] To permit data compaction, and simple kinome‐wide comparisons, the fold changes are log2 transformed. […] Cell pellets were resuspended at a concentration of ~6,500 cells/μl in RLT buffer (Qiagen). […] For total copy numbers, triplicate normalised count values were averaged, and to calculate fold induction, means were divided by triplicate mean values from matched DMSO controls. P‐values were calculated using unpaired t‐test (GraphPad Prism software) by employing treated and control count data for each kinase mRNA.
compound,measurement,setting,value
NC1(c2ccc(-c3nc4ccn5c(=O)[nH]nc5c4cc3-c3ccccc3)cc2)CCC1 [MK-2206],Normalised counts HIPK1,"HIPK1 mRNA, single replicates",558.67 and 555.89 and 631.82
same,Average normalised counts HIPK2,"HIPK2 mRNA, average of 3 replicates",697.1
same,Normalised counts HIPK2,"HIPK2 mRNA, single replicates",690.47 and 698.36 and 702.47
same,Average normalised counts HIPK3,"HIPK3 mRNA, average of 3 replicates",924.78
same,Normalised counts HIPK3,"HIPK3 mRNA, single replicates",914.99 and 915.54 and 943.81
same,Average normalised counts HIPK4,"HIPK4 mRNA, average of 3 replicates",8.793
same,Normalised counts HIPK4,"HIPK4 mRNA, single replicates",13.29 and 6.84 and 6.25
same,Average normalised counts HSPB8,"HSPB8 mRNA, average of 3 replicates",703.253
same,Normalised counts HSPB8,"HSPB8 mRNA, single replicates",670.48 and 739.19 and 700.09
same,Average normalised counts HUNK,"HUNK mRNA, average of 3 replicates",120.407
same,Normalised counts HUNK,"HUNK mRNA, single replicates",115.1 and 122.38 and 123.74
same,Average normalised counts HUS1,"HUS1 mRNA, average of 3 replicates",872.423
same,Normalised counts HUS1,"HUS1 mRNA, single replicates",841.36 and 886.88 and 889.03
same,Average normalised counts IGF1R,"IGF1R mRNA, average of 3 replicates",2361.57
same,Normalised counts IGF1R,"IGF1R mRNA, single replicates",2300.25 and 2376.77 and 2407.7
same,Average normalised counts IKBKB,"IKBKB mRNA, average of 3 replicates",768.703
same,Normalised counts IKBKB,"IKBKB mRNA, single replicates",749.55 and 764.38 and 792.18
same,Average normalised counts IKBKE,"IKBKE mRNA, average of 3 replicates",224.477
same,Normalised counts IKBKE,"IKBKE mRNA, single replicates",217.95 and 203.13
same,Average normalised counts ILK,"ILK mRNA, average of 3 replicates",435.073
same,Normalised counts ILK,"ILK mRNA, single replicates",419.6 and 422.1 and 463.52
same,Average normalised counts INSR,"INSR mRNA, average of 3 replicates",414.107
same,Normalised counts INSR,"INSR mRNA, single replicates",395.06 and 455.98 and 391.28
same,Average normalised counts INSRR,"INSRR mRNA, average of 3 replicates",3.12
same,Normalised counts INSRR,"INSRR mRNA, single replicates",2.39 and 5.97 and 1
same,Average normalised counts IRAK1,"IRAK1 mRNA, average of 3 replicates",1144.48
same,Normalised counts IRAK1,"IRAK1 mRNA, single replicates",1168.59 and 1134.47 and 1130.37
same,Average normalised counts IRAK2,"IRAK2 mRNA, average of 3 replicates",17.2833
same,Normalised counts IRAK2,"IRAK2 mRNA, single replicates",12.38 and 18.13 and 21.34
same,Average normalised counts IRAK3,"IRAK3 mRNA, average of 3 replicates",4.617
same,Normalised counts IRAK3,"IRAK3 mRNA, single replicates",3.29 and 5.1 and 5.46
same,Average normalised counts IRAK4,"IRAK4 mRNA, average of 3 replicates",506.37
same,Normalised counts IRAK4,"IRAK4 mRNA, single replicates",495.95 and 488.99 and 534.17
same,Average normalised counts ITK,"ITK mRNA, average of 3 replicates",1.763
same,Normalised counts ITK,"ITK mRNA, single replicates",3.29 and 1 (2×)
same,Average normalised counts JAK1,"JAK1 mRNA, average of 3 replicates",943.323
same,Normalised counts JAK1,"JAK1 mRNA, single replicates",967.71 and 921.63 and 940.63
same,Average normalised counts JAK2,"JAK2 mRNA, average of 3 replicates",378.063
same,Normalised counts JAK2,"JAK2 mRNA, single replicates",379.61 and 384.74 and 369.84
same,Average normalised counts JAK3,"JAK3 mRNA, average of 3 replicates",2.113
same,Normalised counts JAK3,"JAK3 mRNA, single replicates",1.48 and 3.37 and 1.49
same,Average normalised counts KALRN,"KALRN mRNA, average of 3 replicates",1
same,Normalised counts KALRN,"KALRN mRNA, single replicates",1
same,Average normalised counts KDR,"KDR mRNA, average of 3 replicates",1.163
same,Normalised counts KDR,"KDR mRNA, single replicates",1 (2×) and 1.49
same,Average normalised counts KIAA1804,"KIAA1804 mRNA, average of 3 replicates",209.647
same,Normalised counts KIAA1804,"KIAA1804 mRNA, single replicates",226.9 and 199.7 and 202.34
same,Average normalised counts KIT,"KIT mRNA, average of 3 replicates",1
same,Normalised counts KIT,"KIT mRNA, single replicates",1
same,Average normalised counts KSR1,"KSR1 mRNA, average of 3 replicates",15.5767
same,Normalised counts KSR1,"KSR1 mRNA, single replicates",14.2 and 11.19 and 21.34
same,Average normalised counts KSR2,"KSR2 mRNA, average of 3 replicates",58.27
same,Normalised counts KSR2,"KSR2 mRNA, single replicates",61.47 and 55.49 and 57.85
same,Average normalised counts LATS1,"LATS1 mRNA, average of 3 replicates",1079.17
same,Normalised counts LATS1,"LATS1 mRNA, single replicates",1068.6 and 1080.61 and 1088.29
same,Average normalised counts LATS2,"LATS2 mRNA, average of 3 replicates",223.537
same,Normalised counts LATS2,"LATS2 mRNA, single replicates",222.36 and 229.24 and 219.01
same,Average normalised counts LCK,"LCK mRNA, average of 3 replicates",1
same,Normalised counts LCK,"LCK mRNA, single replicates",1
same,Average normalised counts LIMK1,"LIMK1 mRNA, average of 3 replicates",487.24
same,Normalised counts LIMK1,"LIMK1 mRNA, single replicates",499.59 and 471.62 and 490.51
same,Average normalised counts LMTK2,"LMTK2 mRNA, average of 3 replicates",633.213
same,Normalised counts LMTK2,"LMTK2 mRNA, single replicates",615.03 and 621.04 and 663.57
same,Average normalised counts LMTK3,"LMTK3 mRNA, average of 3 replicates",14.4067
same,Normalised counts LMTK3,"LMTK3 mRNA, single replicates",19.66 and 8.58 and 14.98
same,Average normalised counts LRRK1,"LRRK1 mRNA, average of 3 replicates",204.153
same,Normalised counts LRRK1,"LRRK1 mRNA, single replicates",193.27 and 214.47 and 204.72
same,Average normalised counts LRRK2,"LRRK2 mRNA, average of 3 replicates",465.12
same,Normalised counts LRRK2,"LRRK2 mRNA, single replicates",461.41 and 439.47 and 494.48
same,Average normalised counts LTK,"LTK mRNA, average of 3 replicates",1
same,Normalised counts LTK,"LTK mRNA, single replicates",1
same,Average normalised counts LYN,"LYN mRNA, average of 3 replicates",10.41
same,Normalised counts LYN,"LYN mRNA, single replicates",11.48 and 10.32 and 9.43
same,MAK Normalised counts Average,"MAK mRNA, average of 3",7.77
same,MAK Normalised counts (single replicates),"MAK mRNA, replicates 1-3",7.84 and 6.84 and 8.63
same,MAP2K1 Normalised counts Average,"MAP2K1 mRNA, average of 3",1481.58
same,MAP2K1 Normalised counts (single replicates),"MAP2K1 mRNA, replicates 1-3",1469.45 and 1465.46 and 1509.84
same,MAP2K2 Normalised counts Average,"MAP2K2 mRNA, average of 3",2403.01
same,MAP2K2 Normalised counts (single replicates),"MAP2K2 mRNA, replicates 1-3",2394.14 and 2328.31
same,MAP2K3 Normalised counts Average,"MAP2K3 mRNA, average of 3",410.613
same,MAP2K3 Normalised counts (single replicates),"MAP2K3 mRNA, replicates 1-3",415.06 and 378.66 and 438.12
same,MAP2K4 Normalised counts Average,"MAP2K4 mRNA, average of 3",708.25
same,MAP2K4 Normalised counts (single replicates),"MAP2K4 mRNA, replicates 1-3",670.48 and 728.77 and 725.5
same,MAP2K5 Normalised counts Average,"MAP2K5 mRNA, average of 3",322.173
same,MAP2K5 Normalised counts (single replicates),"MAP2K5 mRNA, replicates 1-3",317.8 and 316.98 and 331.74
same,MAP2K6 Normalised counts Average,"MAP2K6 mRNA, average of 3",279.153
